Test results reported in patent US20120101099A1, “HISTONE DEACETYLASE INHIBITORS” (ANTHEM BIOSCIENCES PRIVATE LIMITED, priority 2009, published 2012).
Where a name gives a salt, the structure may show the parent alone. Read-outs that look alike come from different tables or passages of the source.

Tests used:
CYP 2D6 = target: T1, CYP 2D6 (Homo sapiens, UniProt P10635); test: Cytochrome-P450 isoforms liability determination; type: in vitro ADME
T1 construct: purchased
Protocol: (§1) To determine the test compound liability towards Human cytochrome 450 (hCYP450) Isoforms fluorescence based screening kits.
(§2) Brief procedure: 2× test compounds were prepared by dilution with deionized water. A serial dilution of the test compound was done. 2× solution of known inhibitor were used as a positive control. 40 μL of the 2× solution that is prepared was added to the desired wells. Two replicates were included for every compound. 50 μL of the Master premix (premix of CYP450 Baclosomes, reagents and regenerating system) was dispensed into each well. The plate was incubated for 20 min at room temperature to allow the compounds to interact with the CYP450enzymes. The reaction was started by adding 10 μL of the substrate and NADP^+ mixture. The plate was incubated for the desired amount of time, and then 10 μL of stop reagent was added to each well to quench the reaction. The fluorescence was measured in the fluorescent plate reader at excitation and emission wavelengths as recommended, depending on the substrate used.

CYP 2C9 = target: T2, CYP 2C9 (Homo sapiens, UniProt P11712); test: Cytochrome-P450 isoforms liability determination; type: in vitro ADME
T2 construct: purchased
T2 sequence (P11712 whole entry, canonical isoform): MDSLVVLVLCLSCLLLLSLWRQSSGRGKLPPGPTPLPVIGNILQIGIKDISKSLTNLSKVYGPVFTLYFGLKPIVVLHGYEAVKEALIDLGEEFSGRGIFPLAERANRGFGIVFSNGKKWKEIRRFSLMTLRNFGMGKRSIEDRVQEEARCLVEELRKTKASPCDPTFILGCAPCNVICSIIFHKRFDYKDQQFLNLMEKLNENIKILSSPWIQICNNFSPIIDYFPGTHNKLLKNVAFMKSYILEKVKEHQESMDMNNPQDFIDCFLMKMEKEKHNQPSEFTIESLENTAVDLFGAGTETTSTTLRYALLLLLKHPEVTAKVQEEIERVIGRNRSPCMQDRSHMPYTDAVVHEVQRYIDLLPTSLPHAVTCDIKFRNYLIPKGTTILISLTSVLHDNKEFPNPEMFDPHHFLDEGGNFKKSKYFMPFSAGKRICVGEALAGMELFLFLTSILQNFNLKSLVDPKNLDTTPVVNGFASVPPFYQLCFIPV
Protocol: as §1, §2

CYP 2C19 = target: T3, CYP 2C19 (Homo sapiens, UniProt P33261); test: Cytochrome-P450 isoforms liability determination; type: in vitro ADME
T3 construct: purchased
T3 sequence (P33261 whole entry, canonical isoform): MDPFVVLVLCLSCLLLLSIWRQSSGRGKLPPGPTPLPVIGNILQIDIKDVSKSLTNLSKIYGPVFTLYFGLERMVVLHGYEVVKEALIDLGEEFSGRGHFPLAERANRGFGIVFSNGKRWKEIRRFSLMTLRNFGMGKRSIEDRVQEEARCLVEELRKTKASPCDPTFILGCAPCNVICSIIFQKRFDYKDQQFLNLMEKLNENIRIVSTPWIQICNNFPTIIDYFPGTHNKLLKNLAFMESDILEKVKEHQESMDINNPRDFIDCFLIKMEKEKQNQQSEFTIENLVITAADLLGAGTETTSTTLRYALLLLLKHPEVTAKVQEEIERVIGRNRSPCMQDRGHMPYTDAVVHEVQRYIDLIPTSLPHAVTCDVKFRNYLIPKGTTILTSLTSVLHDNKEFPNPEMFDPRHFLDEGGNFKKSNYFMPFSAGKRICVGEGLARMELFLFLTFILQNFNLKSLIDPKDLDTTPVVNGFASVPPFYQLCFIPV
Protocol: as §1, §2

CYP 1A2 = target: T4, CYP 1A2 (Homo sapiens, UniProt P05177); test: Cytochrome-P450 isoforms liability determination; type: in vitro ADME
T4 construct: purchased
T4 sequence (P05177 1-516): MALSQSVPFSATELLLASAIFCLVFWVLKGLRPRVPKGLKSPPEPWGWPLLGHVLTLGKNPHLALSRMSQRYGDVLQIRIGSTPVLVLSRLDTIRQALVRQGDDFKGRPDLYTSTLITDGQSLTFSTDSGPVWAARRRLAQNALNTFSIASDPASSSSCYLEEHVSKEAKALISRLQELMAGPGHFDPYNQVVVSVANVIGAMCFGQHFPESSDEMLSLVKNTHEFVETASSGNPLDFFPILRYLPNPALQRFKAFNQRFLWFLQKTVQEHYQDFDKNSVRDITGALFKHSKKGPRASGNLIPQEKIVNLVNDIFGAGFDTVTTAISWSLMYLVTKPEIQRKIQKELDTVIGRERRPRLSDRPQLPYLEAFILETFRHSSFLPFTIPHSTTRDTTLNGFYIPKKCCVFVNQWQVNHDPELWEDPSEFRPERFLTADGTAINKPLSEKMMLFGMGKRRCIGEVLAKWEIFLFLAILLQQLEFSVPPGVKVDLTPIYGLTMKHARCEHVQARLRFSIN
Protocol: as §1, §2

P21 = test: p21 induction in HeLa cells (Western Blot); type: cell-based; parameters: key: represented by the symbol ‘+’ which indicates the relative extent of modulation; ++: represented by the symbol ‘+’ which indicates the relative extent of modulation; +++: represented by the symbol ‘+’ which indicates the relative extent of modulation; ++++: represented by the symbol ‘+’ which indicates the relative extent of modulation; conditions: 24 hrs, 0.03-3.0 μM
Protocol: HeLa Cells were seeded at a density of 0.5×10^6 Cells/well into 6 well plates and incubated for 24 hrs. Compounds were tested at 5 different concentrations (0.03, 0.1, 0.3, 1.0, 3.0 μM) including corresponding controls. After 24 hrs cells were lysed and the cellular extract was used for measuring P21 induction by Western Blot using monoclonal Anti-p21 clone CP74 antibody (Sigma).

[1] = Metabolic stability in mouse liver microsomes; type: in vitro ADME; conditions: 100 μM, 37° C.
Protocol: The objective of the study is to determine the metabolic stability of the compounds in mouse liver microsomes. Brief procedure: metabolic stability of test compounds were carried out using mouse liver microsomes. The final composition of the assay includes test compound 100 μM (dissolved in DMSO), mouse microsomal protein 0.5 mg/mL and cofactors (G-6-P 5.0 mM, G-6-PDH 0.06 U, MgCl2 2.0 mM, NADP+1.0 mM, UDPGA 0.5 mM, PAPS 0.6 mM and GSH 1 mM). The test compounds were incubated at with mouse liver microsomes with cofactors. After 1 h incubation at 37° C., the reaction was stopped by addition of stop solution (ice cold acetonitrile). The samples were centrifuged and supernatants were analysed using LC/MS/MS. The Percent of parent test compounds remaining after 1 h of incubation time was calculated with respect to the peak areas of at time 0.

PC-3 = test: Cell proliferation assay (MTT); type: cell-based; conditions: Homo sapiens
Protocol: (§3) Cells were seeded in a 96-well cell culture plates at a concentration of 10,000 cells per well and incubated at 37° C. in CO2 incubator.
(§4) Twenty-four hours later cells were treated with different concentrations (100, 10, 1, 0.1, and 0.01 μM) of compound dissolved in DMSO and incubated for 48 hours. For To measurement, 24 hours after seeding the cells, 20 μL of 3-(4.5-dimethyl-2- thiazolyl)-2,5-diphenyl-2H-tetrazolium (MTT) solution per well was added to the T0 plate and incubated for 3 hours at 37° C. in a CO2 incubator.
(§5) The plate containing cells and test compounds was treated similarly after 48 hours of incubation. After 3 hours of MTT addition, well contents were aspirated carefully followed by addition of 100 μL DMSO per well. Plates were agitated to ensure dissolution of the formazan crystals in DMSO and absorbance was read at 570 nm (A570). […] From the percentage growths a dose response curve was generated and GI50 values were interpolated from the growth curves.

A549 = test: Cell proliferation assay (MTT); type: cell-based; conditions: Homo sapiens
Protocol: as §3, §4, §5

HT-29 = test: Cell proliferation assay (MTT); type: cell-based; conditions: Homo sapiens
Protocol: as §3, §4, §5

786-O = test: Anti-proliferative activity (GI50); type: cell-based; conditions: Homo sapiens, 786-0; Table 9; Renal
Protocol: as §3, §4, §5

NCI-H23 = test: Anti-proliferative activity (GI50); type: cell-based; conditions: Homo sapiens, Table 9, Lung
Protocol: as §3, §4, §5

cleaved PARP = test: PARP cleavage in HeLa cells (Western Blot); type: cell-based; parameters: key: represented by the symbol ‘+’ which indicates the relative extent of modulation; ++: represented by the symbol ‘+’ which indicates the relative extent of modulation; +++: represented by the symbol ‘+’ which indicates the relative extent of modulation; ++++: represented by the symbol ‘+’ which indicates the relative extent of modulation; conditions: 24 hrs, 0.03-3.0 μM
Protocol: HeLa Cells were seeded (0.3×10^6 Cells/well) into a 6 well plate and after 24 hrs compounds were added in 5 different concentrations (0.03, 0.1, 0.3, 1.0, 3.0 μM). After 24 hrs cells were lysed and cellular extract was used for assessing apoptotic activity by detection of cleaved PARP by Western Blot using monoclonal Anti-poly(ADP-Ribose) polymerase antibody, Clone C-2-10(Sigma).

[2] = fluorescence based kit, read-out: CYP liability (IC50 in μM) CYP 2D6
[3] = fluorescence based kit, read-out: CYP liability (IC50 in μM) CYP 2C9
[4] = fluorescence based kit, read-out: CYP liability (IC50 in μM) CYP 2C19
[5] = fluorescence based kit, read-out: CYP liability (IC50 in μM) CYP 1A2
[6] = PC-3, Table 1, MTT, 48 hours, read-out: Cell growth inhibition (GI50 in μM) PC-3
[7] = PC-3, Table 9, Prostate, read-out: Anti-proliferative activity (GI50) PC-3
[8] = A549, Table 1, MTT, 48 hours, read-out: Cell growth inhibition (GI50 in μM) A549
[9] = A549, Table 9, Lung, read-out: Anti-proliferative activity (GI50) A549
[10] = HT-29, Table 1, MTT, 48 hours, read-out: Cell growth inhibition (GI50 in μM) HT-29
[11] = HT-29, Table 9, Colon, read-out: Anti-proliferative activity (GI50) HT-29

T1 sequence (P10635 whole entry, canonical isoform): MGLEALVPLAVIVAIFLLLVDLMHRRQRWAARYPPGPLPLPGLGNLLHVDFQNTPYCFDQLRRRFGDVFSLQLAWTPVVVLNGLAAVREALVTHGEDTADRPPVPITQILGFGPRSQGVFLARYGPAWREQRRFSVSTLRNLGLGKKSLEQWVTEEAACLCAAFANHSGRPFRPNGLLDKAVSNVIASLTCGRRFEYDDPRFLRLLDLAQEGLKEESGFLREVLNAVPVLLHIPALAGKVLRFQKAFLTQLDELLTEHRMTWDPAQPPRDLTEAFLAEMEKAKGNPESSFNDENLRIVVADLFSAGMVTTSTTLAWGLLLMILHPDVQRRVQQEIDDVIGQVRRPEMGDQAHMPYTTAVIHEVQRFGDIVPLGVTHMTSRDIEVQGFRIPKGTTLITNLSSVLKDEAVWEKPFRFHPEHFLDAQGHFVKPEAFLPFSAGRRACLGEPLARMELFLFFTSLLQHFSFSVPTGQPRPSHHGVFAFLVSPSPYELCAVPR

IC50 (CYP 2D6; [2]) [µM] | IC50 (CYP 2C9; [3]) [µM] | IC50 (CYP 2C19; [4]) [µM] | IC50 (CYP 1A2; [5]) [µM] | % Stable compounds after 1 hr incubation [1] [%] | GI50 (PC-3; [6]) [µM] | GI50 (PC-3; [7]) [µM] | GI50 (A549; [8]) [µM] | GI50 (A549; [9]) [µM] | GI50 (HT-29; [10]) [µM] | GI50 (HT-29; [11]) [µM] | GI50 (786-O) [µM] | GI50 (NCI-H23) [µM] | Structure (SMILES) | P21 induction (P21) | PARP cleavage (cleaved PARP) | further results
13.2 | > 60 | > 60 | > 60 | 98 | 12.6 ± 7.6 | 3.5 ± 2.7 | 1.7 ± 1 | 1.58 ± 1.1 | 0.04 | 0.15 ± 0.13 | 2.65 ± 0.08 | 0.52 ± 0.04 | O=C(/C=C/c1ccc(Cn2cc(-c3ccc(CN4CCCC4)cc3)nn2)cc1)NO [Example 16, N-Hydroxy-3-{4-[4-(4-pyrrolidin-1-ylmethyl-phenyl)-[1,2,3]triazol-1-ylmethyl]-phenyl}-acrylamide] | + | ++++ | –
– | – | – | – | 67 | – | – | – | – | – | – | – | – | O=C(CCCCCCC(=O)Nc1ccccc1)NO [SAHA, Suberoylanilide Hydroxamic Acid, reference compound] | +++ | ++ | IC50 (CYP 2D6): 3.6 µM; IC50 (CYP 2C9): 29.7 µM; IC50 (CYP 2C19): 2.9 µM; IC50 (CYP 1A2): 9.7 µM; GI50 (PC-3; PC-3, read-out: Anti-proliferative activity (GI50) PC-3): 8.3 ± 0.6 µM; GI50 (A549; A549, read-out: Anti-proliferative activity (GI50) A549): 5.9 ± 2.4 µM; GI50 (HT-29; HT-29, read-out: Anti-proliferative activity (GI50) HT-29): 3.6 ± 2.6 µM
> 60 | 51.5 | > 60 | > 60 | 57 | 4 ± 3.9 | 1.7 ± 1.02 | 2.5 ± 0.8 | 2 ± 1.52 | 0.2 | 0.4 ± 0.13 | 1.5 ± 0.7 | 0.4 ± 0.09 | O=C(/C=C/c1cccc(Cn2cc(-c3ccc(CN4CCOCC4)cc3)nn2)c1)NO [Example 25, N-Hydroxy-3-{3-[4-(4-morpholin-4-ylmethyl-phenyl)-[1,2,3]triazol-1-ylmethyl]-phenyl}-acrylamide hydrochloride] | ++ | +++ | –
> 60 | > 60 | > 60 | > 60 | 100 | 22 ± 5.4 | 13.4 ± 3.3 | 5 ± 1.6 | 4.5 ± 2.33 | – | 1.5 ± 0.65 | 2.5 ± 1.01 | 2.3 ± 1.14 | O=C(NO)c1ccc(Cn2cc(-c3ccc(CN4CCOCC4)cc3)nn2)cc1 [Example 9, N-Hydroxy-4-[4-(4-morpholin-4-ylmethyl-phenyl)-[1,2,3]triazol-1-ylmethyl]-benzamide] | + | +++ | –
> 60 | > 60 | > 60 | > 60 | 65 | 11.3 ± 8.3 | 4.8 ± 1.4 | 2.2 ± 2.3 | 2.2 ± 2.22 | – | 2.1 ± 0.46 | 2 ± 1.1 | 0.5 ± 0.24 | CN(C)Cc1ccc(-c2cn(Cc3ccc(/C=C/C(=O)NO)cc3)nn2)cc1 [Example 21] | – | ++++ | –

Structure (SMILES) | IC50 (CYP 2D6; [2]) [µM] | IC50 (CYP 2C9; [3]) [µM] | IC50 (CYP 2C19; [4]) [µM] | IC50 (CYP 1A2; [5]) [µM] | % Stable compounds after 1 hr incubation [1] [%] | GI50 (PC-3; [6]) [µM] | GI50 (PC-3; [7]) [µM] | GI50 (A549; [8]) [µM] | GI50 (A549; [9]) [µM] | GI50 (HT-29; [10]) [µM] | GI50 (HT-29; [11]) [µM] | GI50 (786-O) [µM] | GI50 (NCI-H23) [µM] | P21 induction (P21) | PARP cleavage (cleaved PARP) | further results
O=C(NO)c1ccc(Cn2cc(-c3ccc(CN4CCCC4)cc3)nn2)cc1 [Example 8, N-Hydroxy-4-[4-(4-pyrrolidin-1-ylmethyl-phenyl)-[1,2,3]triazol-1-ylmethyl]-benzamide] | 26 | > 60 | > 60 | > 60 | 100 | 16.8 ± 8.8 | 4.1 ± 0.38 | 4.1 ± 0.6 | 3.1 ± 1.99 | 0.2 | 1.3 ± 0.33 | 4.1 ± 1.4 | 0.9 ± 0.25 | + | +++ | –
